Laboratory results as given in patent US20140099354A1, “BIOPASSIVATING MEMBRANE STABILIZATION BY MEANS OF NITROCARBOXYLIC ACID-CONTAINING PHOSPHOLIPIDS IN PREPARATIONS AND COATINGS” (priority 2011, published 2014).

Columns and labels:
[1] = Abrasion stability and traction work load of coated balloon catheters; format: physicochemical
Procedure: Balloon catheters were coated by means of the Langmuir-Schaefer procedure where the balloon segment was aligned longitudinally and coaxial to the solution surface, dipping into the liquid for approx. 1 mm over the entire length. Then the catheter was slowly rotated around its axis 5 times. Phospholipids were dissolved at a concentration of 3 mmol in an ion-free aqueous solution at 50° C. The solution was cooled and given to the coating solution then. In case of incomplete dissolution of the phospholipids or if they separated when cooled, DMSO was added at a concentration of up to 20 vol.-%, preferably up to 10 vol.-%. After coating, the catheters were vacuum dried for 8 hours in order to remove residual solvent.
The tubing was filled with a 10% human albumin solution at a temperature of 35° C. The cable system, which had previously been brought through the tubing was connected to the catheter tip and tracked outside the tubing by reversing pulleys, which allowed exactly vertically traction of the cable that was connected to a motorized winch. The winch was mounted on a digital precision balance. The catheters mounted in this manner were pulled through the tubing system and the weight changes measured by the balance, which represented the traction work load achieved for the passage of the catheter, was recorded continuously. These readings were integrated over time. The resultant values allow estimation of the total shear force that occurred during the passage of the catheter through the tubing system.
The abrasion or loss of coating layers was determined by weighing the catheter before and after coating as well as after the mechanical stability test in the tubing system as described above using a high precision balance.

[2] = tested on: Human red blood cells; experiment: Erythrocyte membrane stability (osmotic, mechanical, storage); format: cell-based; details: 30 mmol/l, incubated for an hour
Procedure: The physico-chemical properties of cell membranes determine their strength of resistance to physical, chemical and immunological alterations. Human red blood cells and mast cells from mice dissolved in solutions of physiological NaCl containing the natural phospholipids SOPC and PLPC or the analogue nitrated phospholipids (1-stearoyl-2-(9-nitrooleoyl)-sn-PC (example P14) and 1-palmitoyl-2-(9-nitrolinoleoyl)-sn-PC) (example P7) at a concentration of 30 mmol/l were incubated for an hour in order to assess the effects of an up-take of phospholipids into the cell membranes with respect to resistance to external alterations. Similarly, cells incubated with mixtures of nitro-carboxylic acid (s)-containing phospholipids according to examples N2-N14, F, Q, S, O3-O6, P1-P3 and P6 were investigated.
For assessment of osmotic stability, cells were separated from serum by centrifugation first and then cleaned three times with physiological NaCl solution. […] After incubation for 30 minutes under the above described conditions, the tubes were centrifuged and an aliquot was taken for photometric measurement of hemoglobin by absorbance at a wavelength of 546 nm at a temperature of 30° C.
For the examinations of mechanical stability, erythrocytes were prepared according to the procedure above. […] Then, the samples were centrifuged and supernatants were analyzed as stated above. […]

[3] = tested on: TRPV1, 2 and 4, TRPA1; experiment: Inducible ion current of TRP receptors in Xenopus oocytes (voltage clamp); format: cell-based, rat; details: 50 mmol/l, 10 and 60 minutes
[4] = tested on: sciatic nerve; experiment: Viability of cryopreserved nerve grafts (Annexin-V staining, FACS); format: cell-based, rats; details: 100 mmolar solution 1 hour; −30° C. 72 hours
Procedure: The sciatic nerve was prepared and sectured in anesthetized rats. The nerve pieces were freed from connective tissue and divided into 3 parts. Specimens were placed in culture DMEM medium containing low a concentration of glucose (1 g/L) with L-glutamine (PAA, Pasching Austria) for 24 hours. […] Nerve specimens from the same animals that received no pretreatment served as controls. After incubation, the specimens were cultured for 24 hours. In a further control group, specimens were cryopreserved without any pretreatment. The specimens were covered with a sterile gauze pad moistened with culture medium. Thereafter the temperature was gradually cooled to −30° C. After 72 hours, the nerve pieces were gradually rewarmed to 37° C. After this, renewed culturing was done for 48 hours. The nerve pieces were dissected enzymatically then (collagenase A and D, Roche, Mannheim, Germany) followed by a mechanical separation through multiple uptake and release in a glass pipette. The isolated cells were washed and marked with a living/death staining (Annexin-V-Fluos staining Kit, Roche Diagnostics, Mannheim, Germany) and quantified using FACS analysis. The number of living cells identified was set in relation to the total cells count.

[5] = tested on: Murine macrophages (RAW 264.7)
Source text: The survival rate and cytokine production of adhering macrophages were examined to evaluate the bio-passivating properties of various nitro-carboxylic acid containing phospholipids.
Templates made of glass were coated with nitro-carboxylic acid-containing and native phosphatidylcholines and with an admixture of 50% phosphatidylcholine and phosphatidyletholamine, as described in example 2. […] The glass slides were placed in Teflon bowl, uncoated slides served as control. Murine macrophages (RAW 264.7) were cultured to a cell density of 5×10^5. Cell suspensions were added to the culture dishes, so that macrophages could attach on the slides under standard culture conditions for 24 to 48 hours. […] The cell survival rate was investigated using an MTT assay.

[6] = tested on: ovarian tissue strips; experiment: Cryopreservation of ovarian tissue strips: intact follicles; details: liquid nitrogen 14 days, cultured 14 days
Procedure: Ovar ectomy was performed in female sheep; resected tissues were cut into 60 ovarian tissue strips. The ovarian strips were either cultured directly (n=4) or prepared with a usual solution for vitrification (VS group; Vitrification Kit, Sage, USA) or incubated with nitrated PLs (NPL group). For this purpose, the tissue strips were bathed in an equibrilation solution (ART-8025-A) which consisted of MOPS-buffered amino acids and gentamicin sulfate (10 mg/l), and 7.5% (v/v) of each DMSO and ethylene glycol and 12 mg/ml human serum albumin for 30 minutes. Thereafter the strips of the VS group were placed in the vitrification solution (ART-8025-B), which is a MOPS-buffered solution containing amino acids and gentamicin sulfate, that contain 15% (v/v) each DMSO and ethylenglycol, 12 mg/ml human albumin and 0.6 M sucrose. The strips of the NPL group were placed in a solution containing 25% (v/v) nitrated PL SNOPC or PNLPC in a PBS-buffered 1% DMSO solution containing 5% human albumin for 60 minutes. The treated tissue strips were then immersed into liquid nitrogen and kept here for 14 days. Then removal and warming of the tissue pieces was performed in AIM-V medium (Gibco, Invitrogen) in a sterile culture dish, first up to 5° C. within 20 minutes, then heated further in a water bath up to 37° C., within the following 60 minutes. The culture medium was replaced and specimens cultured for 14 days. After this, the tissue pieces were fixed, embedded in paraffin and cut, followed by histological examination. […] The total number of intact follicles in the control group was taken as a reference to the number of follicles in the cryopreserved groups.
The culture medium has been exchanged by every 2nd day; samples for hormone analysis were taken and frozen at that time. Determination of 17 β-estradiol and progesterone were performed with a radio-immuno assay (diagnostic systems laboratories, USA).

[7] = Tissue response to coated silicone implants in vivo after bleomycin; parameters: species or system Wistar rats; details: silicone cushions, subcutaneous, 7 to 90 days
Procedure: Induction of fibrotic tissue production by connective tissue activation as a consequence of implantation of foreign material was examined in an in-vivo animal model. As implant materials, sterile silicone cushions having a diameter of 1 cm were used.
In male Wistar rats (190-240 g) that were fed and housed under identical conditions for one week, general anaesthesia was performed by intramuscular injection of 0.008 mL/100 g ketamine and 0.004 mL/100 g xylocaln chloride 2%. Then the back of the animals was shaved, sterilized and infiltrated with xylocalne chloride. A paravertebral incision was made on both sides with a length of 1.5 cm followed by preparation of the subcutaneous tissue, so that on both sides approx. 2×2 cm cavities were preformed. Hemostasis was achieved by cauterization, if necessary. Then balls of cotton saturated with Bleomycin (cell-pharm GmbH, Hannover, Germany: 1% in 0.9% NaCl solution) were inserted into the cavities for 3 minutes and then removed. Without rinsing the cavities, the implants coated with a nitrated phospholipid were inserted into the cavity on the left side and the implants coated with natural phospholipid into the cavity on the right side. Thereafter, a layer by layer wound closure was performed and a sterile adhesive bandage was applied.
The animals were kept according to standard conditions for 7, 14, 30, 60 and 90 days. At any study time endpoint, two animals were euthanized. After death the well visible and palpable implants were removed using en-block resection technique. The resected specimens were fixed and embedded in paraffin. Then they were cut in half and the liquid silicone was removed. The specimens were embedded again and cut into thin slices which were stained with H & E and Sirius red, and evaluated by light microscopy. Evaluation was done according to the following criteria:
A1: none; A2: occasional monocytic cells or lymphocytes; A3: moderate numbers or groups of monocytic cells or lymphocytes; A4: dense infiltration of monocytes, eosinophils, or giant cells.
B1: none; B2: collagen-rich layer around the implant; B3: thick (>1 mm) and dense collagen-rich tissue formation around the implant.
In every 10th serial section 10 fields of view uniformly distributed over the circumference of the implant were evaluated and the herein predominant expression was assigned to an event table. In total, 200 fields of view were analyzed per implant

For `CCCCCCCC/C=C(\CCCCCCCC(=O)O[C@H](COC(=O)CCCCCCCCCCCCCCC)COP(=O)(O)OCCN)[N+](=O)[O-]` [Example S, 1-Palmitoyl-2-(E-9-nitrooleoyl)-sn-3-glycero-phosphatidylethanolamine], the “mechanical removal of coating substance and workload to pull the catheter through PTFE tubing” value (“mechanical removal” below) [1] was “Very similar results”, the erythrocyte membrane stability [2] was “very similar values as the nitrated phosphocholines” and the “inducible membrane channel activity of TRP channels” value [3] was “significant decrease of inducible membrane channel activity”. For the same molecule, the “proportion of living cells relative to non-frozen control” value [4] was 85%.
For `CCCCCCCC/C=C(\CCCCCCCC(=O)OC[C@H](COP(=O)([O-])OCC[N+](C)(C)C)OC(=O)CCCCCCCCCCCCCCC)[N+](=O)[O-]` [Example Q, 1-(9-Nitrooleoyl)-2-(palmitoyl)-sn-3-glycero-phosphocholine], the “mechanical removal” value [1] was “Very similar results”, the “proportion of living cells relative to non-frozen control” value [4] was 80% and the “viability of adhering macrophages” value [5] was 95-98%. For the same molecule, the “rate of intact follicles relative to the control group” value [6] was 96%.
For `CCCCCCCCC=C(CCCCCCCC(=O)OC[C@H](COP(=O)(O)OC1C(O)C(O)C(O)C(O)C1O)OC(=O)CCCCCCCC(=CCCCCCCCC)[N+](=O)[O-])[N+](=O)[O-]` (stereo partly shown) [Example F, 1,2-di-(9-nitrooleoyl)-sn-3-glycerophosphatidylinositol], the “mechanical removal” value [1] was “Very similar results”, the erythrocyte membrane stability [2] was “very similar values as the nitrated phosphocholines” and the “inducible membrane channel activity of TRP channels” value [3] was “significant decrease of inducible membrane channel activity”. The “biocompatibility of coated implants compared to natural PLs” value [7] was “improved biocompatibility of implants several-fold” and the “proportion of living cells relative to non-frozen control” value [4] was 88%.
